Data as given in patent publication US20120004244A1, “Bis Aromatic Compounds for Use as LTC4 Synthase Inhibitors” (BIOLIPOX AB, priority 2009, published 2012).

Each compound was assayed against T1, Recombinant human LTC4 synthase (Homo sapiens, UniProt Q16873) (assay: LTC4 synthase in vitro assay (LTA4 to LTC4, HTRF detection)). Details: not given.
T1 construct: made in house; host or cells: Pichia pastoris ('Piccia pastoralis' [sic])
T1 sequence (Q16873 1-150): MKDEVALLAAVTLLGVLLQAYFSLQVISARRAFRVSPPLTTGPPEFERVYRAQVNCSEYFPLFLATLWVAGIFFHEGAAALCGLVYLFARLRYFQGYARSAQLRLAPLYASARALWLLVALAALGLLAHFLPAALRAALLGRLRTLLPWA
Format: biochemical
Outline: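 Purified recombinant human LTC4 synthase expressed in Pichia (0.5 μg/mL total protein) was preincubated with inhibitor at 10 μM final for 10 min at room temperature in PBS pH 7.4 with 5 mM GSH. LTA4 was then added at 2.5 μM final, and after 5 min at room temperature LTC4 was detected by HTRF.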

Structure (SMILES) | IC50 [nM]
O=C(O)c1cc(C(=NO)c2ccc(N(CC3CC3)c3ccc(Cl)cc3)cn2)ccc1Oc1ccccc1 (mixture of isomers) [Example 14, 5-({5-[(4-Chlorophenyl)(cyclopropylmethyl)amino]-2-pyridyl}(hydroxyimino)-methyl)-2-phenoxybenzoic acid] | 1110
CN(c1ccc(Cl)cc1)c1ccc(C(=O)c2ccc(N3CCC(C(F)(F)F)CC3)c(C(=O)O)c2)nc1 [2:22, 5-{5-[(4-Chlorophenyl)(methyl)amino]picolinoyl}-2-(4-trifluoromethyl-1-piperidinyl)benzoic acid] | 2000
CN(c1ccc(Cl)cc1)c1ccc(C(=O)c2ccc(C(=O)c3ccccc3C(F)(F)F)c(C(=O)O)c2)nc1 [5:29] | 245
CN(c1ccc(Cl)cc1)c1ccc(C(=O)c2ccc(NC(=O)c3cccc(C(F)(F)F)c3)c(C(=O)O)c2)nc1 [3:39, 5-{5-[(4-chlorophenyl)(methyl)amino]picolinoyl}-2-(3-trifluoromethylbenzamido)-benzoic acid] | 91
O=C(c1ccc(Oc2ccc3c(c2)OCO3)c(C(=O)O)c1)c1ccc(N(CC2CC2)c2ccc(Cl)cc2)cn1 [1:31, 5-{5-[(4-Chlorophenyl)(cyclopropylmethyl)amino]picolinoyl}-2-(3,4-methylenedioxyphenoxy)benzoic acid] | 142
CN(c1ccc(Cl)cc1)c1ccc(C(=O)c2ccc(C(=O)C(C)(C)C)c(C(=O)O)c2)nc1 [5:13, 5-{5-[(4-Chlorophenyl)(methyl)amino]picolinoyl}-2-(2,2-dimethylpropionyl)-benzoic acid] | 491
COc1cccc(C(=O)Nc2ccc(C(=O)c3ccc(N(C)c4ccc(Cl)cc4)cn3)cc2C(=O)O)c1 [3:10, 5-{5-[(4-Chlorophenyl)(methyl)amino]picolinoyl}-2-(3-methoxybenzamido)-benzoic acid] | 24
CN(c1ccc(Cl)cc1)c1ccc(C(=O)c2ccc(-c3ccc(Cl)cc3Cl)c(C(=O)O)c2)nc1 [21:2, 2′,4′-Dichloro-4-{5-[(4-chlorophenyl)(methyl)amino]picolinoyl}biphenyl-2-carboxylic acid] | 261
CN(c1ccc(Cl)cc1)c1ccc(C(=O)c2ccc(-c3cccc(Cl)c3)c(C(=O)O)c2)nc1 [21:4, 3′-Chloro-4-{5-[(4-chlorophenyl)(methyl)amino]picolinoyl}biphenyl-2-carboxylic acid] | 704
O=C(c1ccc(-n2nncc2-c2cccc(Cl)c2)c(C(=O)O)c1)c1ccc(N(CC2CC2)c2ccc(Cl)cc2)cn1 [17:4, 5-{5-[(4-Chlorophenyl)(cyclopropylmethyl)amino]picolinoyl}-2-(5-(3-chlorophenyl)-1,2,3-triazol-1-yl)benzoic acid] | 16
O=C(c1ccc(Oc2ccccc2)c(C(=O)O)c1)c1ccc(N(CC2CC2)c2ccc(C(F)(F)F)cc2)cn1 [1:18, 5-{5-[(Cycloropylmethyl)(4-trifluoromethylphenyl)amino]picolinoyl}-2-phenoxybenzoic acid] | 141
CN(c1ccc(Cl)cc1)c1ccc(C(=O)c2cc(C(=O)O)c(Oc3ccccc3)cn2)cc1 [8:2] | 302
Cc1ccc(N(C)c2ccc(C(=O)c3ccc(C(=O)c4ccccc4)c(C(=O)O)c3)nc2)cc1 [5:21] | 250
CCN(c1ccc(C(=O)c2ccc(Oc3ccccc3)c(C(=O)O)c2)nc1)c1cccc(C(F)(F)F)c1 [1:12, 5-{5-[(Ethyl)(3-trifluoromethylphenyl)amino]picolinoyl}-2-phenoxybenzoic acid] | 247
COc1ccccc1C(=O)c1ccc(C(=O)c2ccc(N(C)c3ccc(Cl)cc3)cn2)cc1C(=O)O [5:8, 5-{5-[(4-Chlorophenyl)(methyl)amino]picolinoyl}-2-(2-methoxybenzoyl)benzoic acid] | 154
CN(c1ccc(Cl)cc1)c1ccc(C(=O)c2ccc(OCc3ccccc3Cl)c(C(=O)O)c2)nc1 [12:2, 2-(2-Chlorobenzyloxy)-5-{5-[(4-chlorophenyl)(methyl)amino]picolinoyl}benzoic acid] | 184
CSc1ccccc1Oc1ccc(C(=O)c2ccc(N(C)c3ccc(Cl)cc3)cn2)cc1C(=O)O [1:23, 5-{5-[(4-Chlorophenyl)(methyl)amino]picolinoyl}-2-(2-methylsulfanylphenoxy)benzoic acid] | 362
O=C(c1ccc(Oc2ccccc2)c(C(=O)O)c1)c1ccc(N(CC2CCCC2)c2ccc(Cl)cc2)cn1 [1:6, 5-{5-[(4-Chlorophenyl)(cyclopentylmethyl)amino]picolinoyl}-2-phenoxybenzoic acid] | 61
CN(c1ccc(Cl)cc1)c1ccc(C(=O)c2ccc(C(=O)Cc3ccccc3)c(C(=O)O)c2)nc1 [5:16, 5-{5-[(4-Chlorophenyl)(methyl)amino]picolinoyl}-2-phenylacetylbenzoic acid] | 257

Structure (SMILES) | IC50 [nM]
COc1ccc(C(=O)Nc2ccc(C(=O)c3ccc(N(C)c4ccc(Cl)cc4)cn3)cc2C(=O)O)c(Cl)c1OC [3:36, 2-(2-Chloro-3,4-dimethoxybenzamido)-5-{5-[(4-chlorophenyl)(methyl)amino]-picolinoyl}benzoic acid] | 39
O=C(c1ccc(Oc2ccccc2)c(C(=O)O)c1)c1ccc(OCc2cccc(Cl)c2)cn1 [11:1, 5-[5-(3-Chlorobenzyloxy)picolinoyl]-2-phenoxybenzoic acid] | 143
CN(c1ccc(Cl)cc1)c1ccc(C(=O)c2ccc(Nc3ccccc3)c(C(=O)O)c2)nc1 [2:21, 5-{5-[(4-Chlorophenyl)(methyl)amino]picolinoyl}-2-phenylaminobenzoic acid] | 139
CN(c1ccc(Cl)cc1)c1ccc(C(=O)c2ccc(Oc3ccccc3S(C)(=O)=O)c(C(=O)O)c2)nc1 [1:48, 5-{5-[(4-Chlorophenyl)(methyl)amino]picolinoyl}-2-(2-methylsulfonylphenoxy)-benzoic acid] | 632
COc1cccc(C(=O)Nc2ccc(C(=O)c3ccc(N(C)Cc4ccc(Cl)cc4)cn3)cc2C(=O)O)c1 [3:37, 5-{5-[(4-Chlorobenzyl)(methyl)amino]picolinoyl}-2-(3-methoxybenzamido)-benzoic acid] | 21
CN(c1ccc(Cl)cc1)c1ccc(C(=O)c2ccc(-n3nc(-c4ccc(Cl)cc4)cc3C(F)(F)F)c(C(=O)O)c2)nc1 [18:6, 5-{5-[(4-Chlorophenyl)(methyl)amino]picolinoyl}-2-[3-(4-chlorophenyl)-5-trifluoromethylpyrazol-1-yl]benzoic acid] | 115
CN(c1ccc(Cl)cc1)c1ccc(C(=O)c2ccc(NC(=O)c3ccc(S(C)(=O)=O)cc3)c(C(=O)O)c2)nc1 [3:14, 5-{5-[(4-Chlorophenyl)(methyl)amino]picolinoyl}-2-(4-methylsulfonyl-benzamido)benzoic acid] | 67
CCCCOc1ccc(S(=O)(=O)Nc2ccc(C(=O)c3ccc(N(C)c4ccc(Cl)cc4)cn3)cc2C(=O)O)cc1 [4:2, 2-(4-Butoxyphenylsulfonamido)-5-{5-[(4-chlorophenyl)(methyl)amino]picolinoyl}-benzoic acid] | 23
COc1cc(F)c(C(=O)Nc2ccc(C(=O)c3ccc(N(C)c4ccc(Cl)cc4)cn3)cc2C(=O)O)c(F)c1 [3:35, 5-{5-[(4-Chlorophenyl)(methyl)amino]picolinoyl}-2-(2,6-difluoro-4-methoxy-benzamido)benzoic acid] | 73
CN(c1ccc(Cl)cc1)c1ccc(C(=O)c2ccc(NC(=O)c3ccc4c(c3)OC(F)(F)O4)c(C(=O)O)c2)nc1 [3:17, 5-{5-[(4-Chlorophenyl)(methyl)amino]picolinoyl}-2-[3,4-(difluoromethylene-dioxy)benzamido]benzoic acid] | 38
O=C(c1ccc(-n2nc(-c3ccccc3)cc2C(F)(F)F)c(C(=O)O)c1)c1ccc(N(CC2CC2)c2ccc(Cl)cc2)cn1 [18:4, 5-{5-[(4-Chlorophenyl)(cyclopropylmethyl)amino]picolinoyl}-2-(3-phenyl-5-trifluoromethylpyrazol-1-yl)benzoic acid] | 65
CN(c1ccc(Cl)cc1)c1ccc(C(=O)c2ccc(NCc3ccc4c(c3)OCO4)c(C(=O)O)c2)nc1 [2:12, 5-{5-[(4-Chlorophenyl)(methyl)amino]picolinoyl}-2-(3,4-methylenedioxybenzylamino)benzoic acid] | 66
O=C(c1ccc(Oc2ccccc2)c(C(=O)O)c1)c1ccc(-c2cccc(Cl)c2)cn1 [7:1, 5-[5-(3-Chlorophenyl)picolinoyl]-2-phenoxybenzoic acid] | 1110
CN(c1ccc(C(F)(F)F)cc1)c1ccc(C(=O)c2ccc(C(=O)c3ccccc3)c(C(=O)O)c2)nc1 [5:2, 2-Benzoyl-5-{5-[(methyl)(4-trifluoromethylphenyl)amino]picolinoyl}benzoic acid] | 78
CN(c1ccc(Cl)cc1)c1ccc(C(=O)c2ccc(C(=O)c3ccc(F)cc3)c(C(=O)O)c2)nc1 [5:15, 5-{5-[(4-Chlorophenyl)(methyl)amino]picolinoyl}-2-(4-fluorobenzoyl)benzoic acid] | 126
O=C(c1ccc(Oc2ccccc2)c(C(=O)O)c1)c1ccc(Nc2ccc(Cl)cc2)cn1 [1:29, 5-[5-(4-Chlorophenylamino)picolinoyl]-2-phenoxybenzoic acid] | 282
CN(c1ccc(Cl)cc1)c1ccc(C(=O)c2ccc(NC3CCOCC3)c(C(=O)O)c2)nc1 [2:16, 5-{5-[(4-Chlorophenyl)(methyl)amino]picolinoyl}-2-(4-tetrahydropyranylamino)benzoic acid] | 333
O=C(c1ccc(Oc2ccccc2)c(C(=O)O)c1)c1ccc(OCc2cccc(Br)c2)cn1 [11:8, 5-[5-(3-Bromobenzyloxy)picolinoyl]-2-phenoxybenzoic acid] | 126

Same assay, conditions: 5 min; total concentration of title compound in the assay 10 μM

Structure (SMILES) | inhibition at 10 µM [%]
O=C(c1ccc(Oc2ccccc2)c(C(=O)O)c1)c1ccc(N(CC2CC2)c2ccc(C(F)(F)F)cc2)cn1 [1:18, 5-{5-[(Cycloropylmethyl)(4-trifluoromethylphenyl)amino]picolinoyl}-2-phenoxybenzoic acid] | 100
CN(c1ccc(Cl)cc1)c1ccc(C(=O)c2cc(C(=O)O)c(Oc3ccccc3)cn2)cc1 [8:2] | 99
CCN(c1ccc(C(=O)c2ccc(Oc3ccccc3)c(C(=O)O)c2)nc1)c1cccc(C(F)(F)F)c1 [1:12, 5-{5-[(Ethyl)(3-trifluoromethylphenyl)amino]picolinoyl}-2-phenoxybenzoic acid] | 100
CSc1ccccc1Oc1ccc(C(=O)c2ccc(N(C)c3ccc(Cl)cc3)cn2)cc1C(=O)O [1:23, 5-{5-[(4-Chlorophenyl)(methyl)amino]picolinoyl}-2-(2-methylsulfanylphenoxy)benzoic acid] | 100
O=C(c1ccc(Oc2ccccc2)c(C(=O)O)c1)c1ccc(N(CC2CCCC2)c2ccc(Cl)cc2)cn1 [1:6, 5-{5-[(4-Chlorophenyl)(cyclopentylmethyl)amino]picolinoyl}-2-phenoxybenzoic acid] | 100
CN(c1ccc(Cl)cc1)c1ccc(C(=O)c2ccc(Oc3ccccc3S(C)(=O)=O)c(C(=O)O)c2)nc1 [1:48, 5-{5-[(4-Chlorophenyl)(methyl)amino]picolinoyl}-2-(2-methylsulfonylphenoxy)-benzoic acid] | 95

Same assay, conditions: compound concentration 3 μM

Structure (SMILES) | inhibition at 3 µM [%]
CCCCOc1ccc(S(=O)(=O)Nc2ccc(C(=O)c3ccc(N(C)c4ccc(Cl)cc4)cn3)cc2C(=O)O)cc1 [4:2, 2-(4-Butoxyphenylsulfonamido)-5-{5-[(4-chlorophenyl)(methyl)amino]picolinoyl}-benzoic acid] | 100
